Key:
Type in all cases: biochemical
PRK2 = PRK2 (Homo sapiens, UniProt Q16513); assay: cell-free kinase activity assay; conditions: DMSO control set 100%
PKCζ = target: T1, PKCζ (Homo sapiens, UniProt Q05513); assay: cell-free kinase activity assay; conditions: DMSO control set 100%; for remaining activity at 50 µM / remaining activity at 200 µM: read-out: percent of catalytic activity of the Kinase in the presence of compound as compared to the solvent control (DMSO): PKCζ; for remaining activity at 200 µM: 200 μM compound
T1 sequence (Q05513 1-592): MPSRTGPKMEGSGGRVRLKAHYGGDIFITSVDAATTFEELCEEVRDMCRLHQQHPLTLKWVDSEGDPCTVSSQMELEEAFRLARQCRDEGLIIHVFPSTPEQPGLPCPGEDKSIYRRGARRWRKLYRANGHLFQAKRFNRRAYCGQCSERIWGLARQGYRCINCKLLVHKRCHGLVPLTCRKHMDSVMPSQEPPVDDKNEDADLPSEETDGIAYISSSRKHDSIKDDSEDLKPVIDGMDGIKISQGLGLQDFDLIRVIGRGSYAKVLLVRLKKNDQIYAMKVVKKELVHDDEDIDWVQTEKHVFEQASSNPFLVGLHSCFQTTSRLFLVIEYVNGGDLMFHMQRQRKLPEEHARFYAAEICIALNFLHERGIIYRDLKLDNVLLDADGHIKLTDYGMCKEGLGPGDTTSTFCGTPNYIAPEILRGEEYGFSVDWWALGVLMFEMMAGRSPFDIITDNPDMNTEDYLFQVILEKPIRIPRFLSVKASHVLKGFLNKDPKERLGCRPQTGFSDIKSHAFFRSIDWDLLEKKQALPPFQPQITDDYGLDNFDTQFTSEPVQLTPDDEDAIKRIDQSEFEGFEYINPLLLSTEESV

S6K = S6K (Homo sapiens, UniProt P23443); assay: cell-free kinase activity assay; conditions: DMSO control set 100%; for remaining activity at 50 µM / remaining activity at 200 µM: read-out: percent of catalytic activity of the Kinase in the presence of compound as compared to the solvent control (DMSO): S6K
PKBβ = PKBβ (Homo sapiens, UniProt P31751); assay: cell-free kinase activity assay; conditions: DMSO control set 100%; for remaining activity at 50 µM / percent of catalytic activity of the Kinase in the presence of compound as compared to the solvent control (DMSO): PKBβ: 50 μM compound; for remaining activity at 50 µM / remaining activity at 200 µM: read-out: percent of catalytic activity of the Kinase in the presence of compound as compared to the solvent control (DMSO): PKBβ; for remaining activity at 200 µM: 200 μM compound
SGK = target: T2, SGK (Homo sapiens, UniProt O00141); assay: cell-free kinase activity assay; conditions: DMSO control set 100%; for remaining activity at 200 µM / remaining activity at 50 µM: read-out: percent of catalytic activity of the Kinase in the presence of compound as compared to the solvent control (DMSO): SGK
T2 sequence (O00141 1-431): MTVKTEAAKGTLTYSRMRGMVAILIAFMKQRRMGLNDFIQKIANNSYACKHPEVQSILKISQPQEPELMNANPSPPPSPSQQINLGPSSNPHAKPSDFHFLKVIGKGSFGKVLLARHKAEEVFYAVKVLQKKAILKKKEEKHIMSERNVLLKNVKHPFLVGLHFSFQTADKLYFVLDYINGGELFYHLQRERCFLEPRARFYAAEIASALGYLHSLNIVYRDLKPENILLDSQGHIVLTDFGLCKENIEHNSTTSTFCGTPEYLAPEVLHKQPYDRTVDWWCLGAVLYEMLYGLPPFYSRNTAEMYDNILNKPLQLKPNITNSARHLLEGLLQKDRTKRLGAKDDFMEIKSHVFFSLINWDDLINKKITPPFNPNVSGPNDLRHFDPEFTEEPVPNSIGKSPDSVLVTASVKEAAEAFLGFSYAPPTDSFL

PDK1 = target: T3, PDK1 (Homo sapiens, UniProt O15530); assay: cell-free kinase activity assay (ATPgamma[32P], T308tide substrate); conditions: for activity at 50 µM: 50 μM compound; for activity at 50 µM / activity at 200 µM: DMSO control set 100%, read-out: percent of catalytic activity of the Kinase in the presence of compound as compared to the solvent control (DMSO): PDK1; for activity at 200 µM: 200 μM compound; for AC50: concentration of the compound required to activate half maximally; for AC50 / max. activation of PDK1 (fold): n.e.: no effect; for max. activation of PDK1 (fold): maximum activation achievable, compared to the basal activity of PDK1
T3 construct: GST
T3 sequence (O15530 1-556): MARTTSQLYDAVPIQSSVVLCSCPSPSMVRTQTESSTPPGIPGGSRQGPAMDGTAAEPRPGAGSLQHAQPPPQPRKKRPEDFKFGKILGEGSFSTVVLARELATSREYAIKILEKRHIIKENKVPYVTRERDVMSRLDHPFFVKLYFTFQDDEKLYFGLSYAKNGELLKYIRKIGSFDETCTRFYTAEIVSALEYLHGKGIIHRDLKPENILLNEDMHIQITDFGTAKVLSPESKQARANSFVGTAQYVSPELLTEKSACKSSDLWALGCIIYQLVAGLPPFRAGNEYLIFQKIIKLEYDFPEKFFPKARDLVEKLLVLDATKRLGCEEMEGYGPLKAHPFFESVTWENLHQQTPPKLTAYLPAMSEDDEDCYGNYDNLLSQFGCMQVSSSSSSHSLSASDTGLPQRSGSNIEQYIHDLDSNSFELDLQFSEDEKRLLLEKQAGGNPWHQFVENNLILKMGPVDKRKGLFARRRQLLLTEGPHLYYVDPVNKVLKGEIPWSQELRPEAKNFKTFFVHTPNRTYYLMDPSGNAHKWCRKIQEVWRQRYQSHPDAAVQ
Source text: Principle of the cell-free kinase activity assay: In general, the activity of the compounds as protein kinase inhibitors or activators may be assayed in vitro (cell free assay is meant here), in vivo or in a cell line. In vitro assays include assays that determine inhibition or activation of either the phosphorylation activity or ATPase activity of the activated protein kinase. Alternate in vitro assays quantitate the ability of the inhibitor to bind to the protein kinase. Compound binding may be measured by radiolabelling the compound prior to binding, isolating the inhibitor or activator/protein kinase complex and determining the amount of radiolabel bound. Alternatively, inhibitor or activator binding may be determined by running a competition experiment where new compounds are incubated with the protein kinase bound to known radioligands. Newer methods comprise fluorescence polarisation assays and surface plasmon resonance dependent techniques. […] The activity and modulation of activity is measured using a standard ATPgamma[^32P] assay as described earlier. […] The concentration of T308tide is 1 mM and the amount of PDK1 used is 200 ng. Reactions are carried out at room temperature. Reaction is started by addition of ATP-Mg mix and stopped with phosphoric acid after 30 min. Stopped reactions were spotted on to phosphocellulose paper (P81, Whatman) and washed. After drying, the radioactivity associated to the band was quantified.

PKA = PKA (Homo sapiens, UniProt P17612); assay: cell-free kinase activity assay; conditions: DMSO control set 100%

Chain of PKBβ (P31751 whole entry, species assumed): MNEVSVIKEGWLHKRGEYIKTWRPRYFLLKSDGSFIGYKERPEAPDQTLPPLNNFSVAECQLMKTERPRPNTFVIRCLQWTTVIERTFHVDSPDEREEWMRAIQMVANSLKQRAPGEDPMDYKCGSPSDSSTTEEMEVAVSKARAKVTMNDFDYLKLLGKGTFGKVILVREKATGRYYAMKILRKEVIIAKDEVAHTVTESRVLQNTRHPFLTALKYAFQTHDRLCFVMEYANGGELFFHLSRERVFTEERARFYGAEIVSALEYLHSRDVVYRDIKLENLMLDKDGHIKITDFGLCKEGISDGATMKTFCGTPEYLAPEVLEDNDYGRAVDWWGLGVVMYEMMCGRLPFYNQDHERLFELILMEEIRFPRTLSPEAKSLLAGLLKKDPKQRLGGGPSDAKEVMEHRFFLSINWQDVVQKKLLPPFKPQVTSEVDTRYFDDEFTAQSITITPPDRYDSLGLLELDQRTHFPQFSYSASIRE
Chain of S6K (P23443 whole entry): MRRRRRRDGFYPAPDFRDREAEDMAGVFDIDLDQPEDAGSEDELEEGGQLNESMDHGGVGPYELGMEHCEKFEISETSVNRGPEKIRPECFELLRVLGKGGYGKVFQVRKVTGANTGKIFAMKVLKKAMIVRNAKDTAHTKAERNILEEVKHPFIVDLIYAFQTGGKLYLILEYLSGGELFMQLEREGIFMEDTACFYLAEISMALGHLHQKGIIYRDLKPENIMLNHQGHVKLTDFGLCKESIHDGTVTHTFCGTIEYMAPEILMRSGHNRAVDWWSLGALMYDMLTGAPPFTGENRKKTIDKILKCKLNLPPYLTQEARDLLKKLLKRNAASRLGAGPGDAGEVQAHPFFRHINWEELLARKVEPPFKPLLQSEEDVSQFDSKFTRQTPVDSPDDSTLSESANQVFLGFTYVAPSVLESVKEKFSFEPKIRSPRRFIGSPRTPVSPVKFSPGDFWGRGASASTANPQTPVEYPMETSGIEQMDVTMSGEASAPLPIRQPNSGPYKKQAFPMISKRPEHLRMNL
Chain of PRK2 (Q16513 whole entry, species assumed): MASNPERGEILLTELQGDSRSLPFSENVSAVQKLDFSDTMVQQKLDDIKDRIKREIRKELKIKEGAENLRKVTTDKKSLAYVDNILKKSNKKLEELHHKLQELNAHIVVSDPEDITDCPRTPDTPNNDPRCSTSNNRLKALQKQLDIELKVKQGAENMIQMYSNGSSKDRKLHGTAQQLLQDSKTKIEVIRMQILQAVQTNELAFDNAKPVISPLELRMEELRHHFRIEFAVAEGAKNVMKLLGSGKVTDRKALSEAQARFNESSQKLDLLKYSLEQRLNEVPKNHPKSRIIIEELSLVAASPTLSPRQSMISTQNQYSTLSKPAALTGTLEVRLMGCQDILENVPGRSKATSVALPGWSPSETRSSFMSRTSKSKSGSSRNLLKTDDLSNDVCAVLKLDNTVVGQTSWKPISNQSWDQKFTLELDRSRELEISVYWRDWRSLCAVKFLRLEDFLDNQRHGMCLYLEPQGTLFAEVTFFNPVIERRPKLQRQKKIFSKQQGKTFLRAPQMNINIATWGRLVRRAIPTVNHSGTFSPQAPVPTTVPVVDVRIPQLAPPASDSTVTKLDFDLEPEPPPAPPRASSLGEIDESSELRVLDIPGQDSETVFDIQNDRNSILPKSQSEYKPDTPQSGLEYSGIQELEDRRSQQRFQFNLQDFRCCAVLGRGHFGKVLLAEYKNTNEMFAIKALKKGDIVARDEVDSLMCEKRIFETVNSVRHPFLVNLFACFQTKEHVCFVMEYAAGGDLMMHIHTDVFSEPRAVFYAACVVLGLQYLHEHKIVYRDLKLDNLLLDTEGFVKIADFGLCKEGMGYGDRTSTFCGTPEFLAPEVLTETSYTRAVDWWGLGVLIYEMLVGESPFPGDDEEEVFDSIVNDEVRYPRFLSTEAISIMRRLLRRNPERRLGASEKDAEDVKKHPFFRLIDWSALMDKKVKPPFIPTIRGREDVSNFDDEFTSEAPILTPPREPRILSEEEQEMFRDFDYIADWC

SMILES	percent of catalytic activity of the Kinase in the presence of compound as compared to the solvent control (DMSO): PRK2 (PRK2; 50 μM compound)	percent of catalytic activity of the Kinase in the presence of compound as compared to the solvent control (DMSO): PRK2 (PRK2; 200 μM compound)	remaining activity at 50 µM (PKCζ; 50 μM compound)	remaining activity at 200 µM (PKCζ)	remaining activity at 50 µM (S6K; 50 μM compound)	remaining activity at 200 µM (S6K; 200 μM compound)	remaining activity at 50 µM (PKBβ)	remaining activity at 200 µM (PKBβ)	percent of catalytic activity of the Kinase in the presence of compound as compared to the solvent control (DMSO): SGK (SGK; 50 μM compound)	remaining activity at 200 µM (SGK; 200 μM compound)	activity at 50 µM (PDK1)	activity at 200 µM (PDK1)	AC50 (PDK1)	max. activation of PDK1 (fold) (PDK1)	remaining activity at 50 µM (SGK; 50 μM compound)	percent of catalytic activity of the Kinase in the presence of compound as compared to the solvent control (DMSO): S6K (S6K; 50 μM compound)	percent of catalytic activity of the Kinase in the presence of compound as compared to the solvent control (DMSO): SGK (SGK; 200 μM compound)	percent of catalytic activity of the Kinase in the presence of compound as compared to the solvent control (DMSO): PKA (PKA; 50 μM compound)	percent of catalytic activity of the Kinase in the presence of compound as compared to the solvent control (DMSO): PKA (PKA; 200 μM compound)	percent of catalytic activity of the Kinase in the presence of compound as compared to the solvent control (DMSO): PKBβ (PKBβ)	further results
O=C(O)/C=C(/CCc1cccc(Cl)c1)c1ccccc1 [PS 87, (Z)-5-(3-Chlorophenyl)-3-phenylpent-2-enoic acid]	no effect	no effect	45%	3%	90%	65%	~80%	~60%	no effect	60%	150%	150%	11.6 µM	4.1 fold							
O=C(O)/C=C1\c2ccccc2CC1Cc1ccc(Cl)cc1 (stereo not drawn) [PS 102]	no effect		45%	2%	90%	55%	80 to 90%	60 to 70%		50%		180%	30 µM	1.8 fold	112%						remaining activity at 200 µM (PRK2; 200 μM compound, read-out: percent of catalytic activity of the Kinase in the presence of compound as compared to the solvent control (DMSO): PRK2): 110%
O=C(O)CC(Cc1nc2cc(Cl)ccc2[nH]1)c1ccc(Cl)cc1 (stereo not drawn) [PS 114, 4-(5-Chloro-2-benzimidazolyl)-3-(4-chlorophenyl)butanoic acid]	no effect	no effect		30%		75%	85%	80%	no effect		400%	500%				no effect	no effect	no effect	no effect		percent of catalytic activity of the Kinase in the presence of compound as compared to the solvent control (DMSO): PKCζ (PKCζ; 50 μM compound): no effect
O=C(O)/C=C(\CCc1ccc(Cl)cc1)c1ccccc1F [PS 145, (E)-5-(4-Chlorophenyl)-3-(2-fluorophenyl)pent-2-enoic acid]			50%	0%		~80%		~70%		~40%		~120%			~80%	no effect		no effect		no effect	remaining activity at 200 µM (PKA; 200 μM compound, read-out: percent of catalytic activity of the Kinase in the presence of compound as compared to the solvent control (DMSO): PKA): ~60%
O=C(O)/C=C(/CCc1ccc(Br)cc1)c1ccccc1 [PS-T10, (Z)-5-(4-Bromophenyl)-3-phenylpent-2-enoic acid]	no effect	no effect						70 to 80%	no effect		400%	450%	14.5 µM	4.1 fold		no effect	no effect	no effect	no effect	no effect	percent of catalytic activity of the Kinase in the presence of compound as compared to the solvent control (DMSO): S6K (S6K; 200 μM compound): no effect

Source: patent US8912186B2, “Allosteric protein kinase modulators” (Universitaet des Saarlandes, priority 2008, dated 2014)
